Experimental data published in ChEMBL document CHEMBL2331467, “Fungal transformation of cedryl acetate and α-glucosidase inhibition assay, quantum mechanical calculations and molecular docking studies of its metabolites” (Eur J Med Chem, 2013).

These compounds were tested against Alpha-glucosidase MAL62 (Saccharomyces cerevisiae, UniProt P07265) (assay: Inhibition of yeast alpha-glucosidase using para-nitrophenyl alpha-D-glucopyranoside as substrate by spectrophotometric analysis).
Sequence of Alpha-glucosidase MAL62 (P07265 whole entry): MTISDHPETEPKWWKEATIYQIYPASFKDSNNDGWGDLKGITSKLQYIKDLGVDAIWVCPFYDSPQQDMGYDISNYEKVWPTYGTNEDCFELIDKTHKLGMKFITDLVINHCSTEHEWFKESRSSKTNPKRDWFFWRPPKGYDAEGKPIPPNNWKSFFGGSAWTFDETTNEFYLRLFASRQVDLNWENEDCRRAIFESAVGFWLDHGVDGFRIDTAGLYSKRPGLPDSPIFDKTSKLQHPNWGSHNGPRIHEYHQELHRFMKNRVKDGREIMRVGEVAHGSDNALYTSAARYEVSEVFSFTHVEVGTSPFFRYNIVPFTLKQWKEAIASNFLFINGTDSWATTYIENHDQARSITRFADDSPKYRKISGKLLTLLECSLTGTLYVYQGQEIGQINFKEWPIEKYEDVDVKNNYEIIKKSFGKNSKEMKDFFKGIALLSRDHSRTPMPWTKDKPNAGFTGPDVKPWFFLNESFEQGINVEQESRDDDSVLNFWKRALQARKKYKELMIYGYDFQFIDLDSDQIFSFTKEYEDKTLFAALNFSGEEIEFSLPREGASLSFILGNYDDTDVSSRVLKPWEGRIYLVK
In the case of `CC(=O)O[C@]1(C)C[C@H](O)[C@@]23C[C@H]1C(C)(C)[C@@H]2C[C@H](O)[C@H]3C`, the IC50 is reported as “Not Active”. An IC50 of 690 µM was found for `CC(=O)O[C@]1(C)C[C@H](O)[C@@]23C[C@H]1C(C)(C)[C@@H]2CC[C@]3(C)O` in this work. An IC50 of 130 µM was found for `C[C@@H]1CC[C@H]2C(C)(C)[C@H]3C[C@@]12CC[C@@]3(C)O` [CEDROL] in this work. An IC50 of 94 µM was found for `CC(=O)O[C@]1(C)CC[C@@]23C[C@H]1C(C)(C)[C@@H]2CC[C@H]3C` [CEDRYL ACETATE] in this work. An IC50 of 426 µM was found for `OC[C@H]1NC[C@H](O)[C@@H](O)[C@@H]1O` [DUVOGLUSTAT] in this work.
